Reference: patent publication US10618916B2, “Heterocyclic compounds as immunomodulators” (Incyte Corporation, priority 2018, dated 2020)
Read-outs that look alike come from different tables or passages of the source.

Key:
[1] = target: PD-1/PD-L1 protein/protein interaction (recombinant human PD-L1 and human PD-1) (Homo sapiens (Human), UniProt Q9NZQ7); assay: Homogeneous Time-Resolved Fluorescence (HTRF) PD-1/PD-L1 binding assay
Description: Example A. Homogeneous Time-Resolved Fluorescence (HTRF) PD-1/PD-L1 Binding Assay
The assays were conducted in a standard black 384-well polystyrene plate with a final volume of 20 μL. Inhibitors were first serially diluted in DMSO and then added to the plate wells before the addition of other reaction components. The final concentration of DMSO in the assay was 1%. The assays were carried out at 25° C. in the PBS buffer (pH 7.4) with 0.05% Tween-20 and 0.1% BSA. Recombinant human PD-L1 protein (19-238) with a His-tag at the C-terminus was purchased from AcroBiosystems (PD1-H5229). Recombinant human PD-1 protein (25-167) with Fc tag at the C-terminus was also purchased from AcroBiosystems (PD1-H5257). PD-L1 and PD-1 proteins were diluted in the assay buffer and 10 μL was added to the plate well. Plates were centrifuged and proteins were preincubated with inhibitors for 40 minutes. The incubation was followed by the addition of 10 μL of HTRF detection buffer supplemented with Europium cryptate-labeled anti-human IgG (PerkinElmer-AD0212) specific for Fc and anti-His antibody conjugated to SureLight®-Allophycocyanin (APC, PerkinElmer-AD0059H). After centrifugation, the plate was incubated at 25° C. for 60 min. before reading on a PHERAstar FS plate reader (665 nm/620 nm ratio). Final concentrations in the assay were—3 nM PD1, 10 nM PD-L1, 1 nM europium anti-human IgG and 20 nM anti-His-Allophycocyanin. IC50 determination was performed by fitting the curve of percent control activity versus the log of the inhibitor concentration using the GraphPad Prism 5.0 software.

[2] = system: U2OS/PD-L1 cells and Jurkat-PD-1-SHP cells; assay: Src homology region 2 domain-containing phosphatase (SHP) assay; assay type: cell-based
Description: Example B. Src Homology Region 2 Domain-Containing Phosphatase (SHP) Assay
U2OS/PD-L1 cells (DiscoveRx Corporation) were maintained in McCoy's 5A medium with addition of 10% FBS, 0.25 μg/ml Puromycin. After removing the culture media, the cell medium was replaced with assay medium (RPMI1640 medium with 1% FBS). The U2OS/PD-L1 cells were then added in 384-well black clear bottom assay plate (CELLCOAT® Tissue Culture Plates, Greiner Bio-One) at 5000 cells per well in 20 μL assay medium. Test compounds were prepared by serial dilution in DMSO and 125 nL compound were first transferred to the 384 REMP plate well (Thermofisher) by ECHO liquid handler (Labcyte) followed with addition of 27.5 μL assay medium. 5 μL/well compounds in the assay medium were transferred to the cell plate with 0.05% DMSO in the final assay at […]. Jurkat-PD-1-SHP cells (DiscoveRx Corporation) were cultured in RPMI1640 medium supplemented with 10% FBS, 250 μg/ml Hygromycin B, 500 μg/ml G418. After the replacement of culture media with assay medium, 5,000 Jurkat-PD-1-SHP cells in 20 μL were dispensed into each well. The assay plate was incubated at 37° C., 5% CO2 for 2 hours before 2.5 μL PathHunter reagent 1 (DiscoveRx Corporation) were added to each well. The assay plate was shaken for 1 min at 350 rpm in the dark followed with addition of 10 μL PathHunter reagent 2 (DiscoveRx Corporation). Chemiluminescent signal was recorded with TopCount reader (Perkin Elmer) after incubation at room temperature for 1 hour. Wells with DMSO were served as the positive controls and wells containing no cells were used as negative controls. IC50 determination was performed by fitting the curve of percentage of control activity versus the log of the compound concentration using the GraphPad Prism 6.0 software.

[3] = system: PD-L1 aAPC/CHO-K1 cells and Jurkat-PD-1-NFAT effector cells; assay: Nuclear factor of activated T-cells (NFAT) assay; assay type: cell-based
Description: Example C. Nuclear Factor of Activated T-Cells (NFAT) Assay
PD-L1 aAPC/CHO-K1 cells (Promega) were maintained in F-12 medium with addition of 10% FBS, 200 μg/ml Hygromycin B, 250 μg/ml Geneticin (G418). Jurkat-PD-1-NFAT effector cells (Promega) were cultured in RPMI 1640 medium supplemented with 10% FBS, 100 μg/ml Hygromycin B, 500 μg/ml G418. The culture media of PD-L1 aAPC/CHO-K1 cells were first replaced with assay medium (RPMI1640 medium with 1% FBS). The PD-L1 aAPC/CHO-K1 cells were then added in a white 384-well white clear bottom assay plate (CELLCOAT® Tissue Culture Plates, Greiner Bio-One) at 8000 per well in 10 μL assay medium. Test compounds were prepared by serial dilution in DMSO and 0.8 μL test compounds in DMSO were first transferred to the 384 REMP plate well (Thermofisher) by PlateMate Plus (Thermofisher) followed with addition of 50 μL plating medium. 5 μL compounds in the assay medium were transferred to the cells with 0.4% DMSO in the final assay at 2 μM. After removing the culture media, 10,000 Jurkat-PD-1-NFAT effector cells in 5 μL assay medium was dispensed into each well. The assay plate was incubated at 37° C., 5% CO2 for 24 hours. After the assay plate was equilibrated to room temp for 15 minutes, 20 µL/well of Bio-Glo™ reagent (Promega) were added. After 8 minutes incubation at room temperature, luminescence was read at with Pherastar microplate reader (BMG Labtech). The fold of induction (FOI) was calculated based on the ratio of luminescence normalized to the DMSO wells within each assay plate. The maximum percentage of induction was reported based on the ratio between the highest FOI of each compound and the maximum FOI of control compound within each assay plate. Wells with DMSO were served as the negative controls and wells containing control compound with the highest FOI were used as positive controls. EC50 determination was performed by fitting the curve of percent control activity versus the log of the compound concentration using the GraphPad Prism 6.0 software.

PD-L1 = PD-L1 (Homo sapiens (Human), UniProt Q9NZQ7); assay: PD-L1 whole blood internalization assay; assay type: cell-based; conditions: 24 HR, PD-L1 expression on CD14+ cells, human interferon γ
Description: Example D. PD-L1 Whole Blood Internalization Assay
To determine PD-L1 internalization in human whole blood, normal human blood (Biological Specialty Corp, Colmar. Pa.) was incubated in the presence or absence of a concentration range of test compounds and 1 ng/ml human interferon γ (R&D Systems Inc. Minn. […] Blood was then stained with PD-L1 (MIH1, eBioscience; or BD Biosciences San Jose, Calif.), CD14 (Life Technologies, Carlsbad, Calif.) for 30 minutes in the dark at room temperature. Whole Blood/red cells were lysed/fixed (lysis buffer BD Biosciences) for 5 minutes at 37° C. in the dark and then centrifuged at 1600 RPM for 5 minutes. Cells were resuspended in Stain Buffer (BD Bioscience, San Jose, Calif.) and transferred into 96 well round bottom plates (Corning). Cells were gated on CD14+(BD Biosciences) and PD-L1 expression determined by mean fluorescence intensity (MFI) (BD LSRFortessa™ X-20). IC50 determination was performed by fitting the curve of compound percent inhibition versus the log of the compound concentration using the GraphPad Prism 7.0 software.

Chain of PD-L1 (Q9NZQ7 19-290): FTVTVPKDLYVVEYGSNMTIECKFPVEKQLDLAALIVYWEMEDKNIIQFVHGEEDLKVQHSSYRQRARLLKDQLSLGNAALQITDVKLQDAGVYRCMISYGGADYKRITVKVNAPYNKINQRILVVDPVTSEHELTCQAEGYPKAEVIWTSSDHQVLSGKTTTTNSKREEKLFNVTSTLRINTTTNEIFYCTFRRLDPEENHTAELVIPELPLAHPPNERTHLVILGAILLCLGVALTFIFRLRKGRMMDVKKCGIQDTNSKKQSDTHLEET
Chain of PD-1/PD-L1 protein/protein interaction (recombinant human PD-L1 and human PD-1) (Q9NZQ7 19-238): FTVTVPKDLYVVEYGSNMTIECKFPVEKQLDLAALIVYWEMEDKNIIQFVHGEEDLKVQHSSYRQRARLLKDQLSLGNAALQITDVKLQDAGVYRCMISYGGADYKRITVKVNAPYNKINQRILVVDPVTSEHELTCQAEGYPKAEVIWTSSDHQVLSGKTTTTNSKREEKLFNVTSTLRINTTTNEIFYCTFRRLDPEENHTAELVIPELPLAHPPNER

Row | Structure (SMILES) | IC50 [1] [nM] | IC50 ([2]; Homo sapiens, U2OS) [nM] | IC50 (PD-L1) [nM] | IC50 [2] [nM] | EC50 ([3]; Cricetulus griseus, CHO-K1) [nM] | EC50 [3] [nM]
1 | Cc1c(NC(=O)c2nc3c(n2C)CCN(C[C@H](C)O)C3)cccc1-c1cccc(NC(=O)c2nc3c(n2C)CCN(CCC24CCC(C(=O)O)(CC2)C4)C3)c1Cl [Example 32, (S)-4-(2-(2-((2-chloro-3′-(5-(2-hydroxypropyl)-1-methyl-4,5,6,7-tetrahydro-1H-imidazo[4,5-c]pyridine-2-carboxamido)-2′-methyl-[1,1′-biphenyl]-3-yl)carbamoyl)-1-methyl-1,4,6,7-tetrahydro-5H-imidazo[4,5-c]pyridin-5-yl)ethyl)bicyclo[2.2.1]heptane-1-carboxylic acid] | ≤ 5 |  | 10 to 100 |  | 10 to 100 | 
2 | Cn1c(C(=O)Nc2cccc(-c3cccc(NC(=O)c4nc5c(n4C)CCN(CCC46CCC(C(=O)O)(CC4)C6)C5)c3Cl)c2Cl)nc2c1CCN(CCCCC(=O)O)C2 [Example 63, 4-(2-(2-((3′-(5-(4-carboxybutyl)-1-methyl-4,5,6,7-tetrahydro-1H-imidazo[4,5-c]pyridine-2-carboxamido)-2,2′-dichloro-[1,1′-biphenyl]-3-yl)carbamoyl)-1-methyl-1,4,6,7-tetrahydro-5H-imidazo[4,5-c]pyridin-5-yl)ethyl)bicyclo[2.2.1]heptane-1-carboxylic acid] | ≤ 5 |  | 10 to 100 |  | 10 to 100 | 
3 | CN(C)C(=O)CCCCN1CCc2c(nc(C(=O)Nc3cccc(-c4cccc(NC(=O)c5nc6c(n5C)CCN(CCC57CCC(C(=O)O)(CC5)C7)C6)c4Cl)c3Cl)n2C)C1 [Example 64, 4-(2-(2-((2,2′-dichloro-3′-(5-(5-(dimethylamino)-5-oxopentyl)-1-methyl-4,5,6,7-tetrahydro-1H-imidazo[4,5-c]pyridine-2-carboxamido)-[1,1′-biphenyl]-3-yl)carbamoyl)-1-methyl-1,4,6,7-tetrahydro-5H-imidazo[4,5-c]pyridin-5-yl)ethyl)bicyclo[2.2.1]heptane-1-carboxylic Acid] | ≤ 5 |  | 10 to 100 |  | ≤ 10 | 

More lines, main results first:

Row | IC50 [1] [nM] | IC50 ([2]; Homo sapiens, U2OS) [nM] | IC50 (PD-L1) [nM] | IC50 [2] [nM] | Structure (SMILES) | EC50 ([3]; Cricetulus griseus, CHO-K1) [nM] | EC50 [3] [nM]
4 | ≤ 5 | ≤ 10 | 10 to 100 |  | Cn1c(C(=O)Nc2cccc(-c3cccc(NC(=O)c4nc5c(n4C)CCN(C4CCC(O)CC4)C5)c3Cl)c2Cl)nc2c1CCN(CCC13CCC(C(=O)O)(CC1)C3)C2 (single isomer, unassigned) [60 (compound 1), 4-(2-(2-((2,2′-dichloro-3′-(5-(4-hydroxycyclohexyl)-1-methyl-4,5,6,7-tetrahydro-1H-imidazo[4,5-c]pyridine-2-carboxamido)-[1,1′-biphenyl]-3-yl)carbamoyl)-1-methyl-1,4,6,7-tetrahydro-5H-imidazo[4,5-c]pyridin-5-yl)ethyl)bicyclo[2.2.1]heptane-1-carboxylic Acid] | ≤ 10 | 
5 | ≤ 5 |  | 10 to 100 | ≤ 10 | Cn1c(C(=O)Nc2cccc(-c3cccc(NC(=O)c4nc5c(n4C)CCN(C4CCC(O)CC4)C5)c3Cl)c2Cl)nc2c1CCN(CCC13CCC(C(=O)O)(CC1)C3)C2 (single isomer, unassigned) [60 (compound 2), 4-(2-(2-((2,2′-dichloro-3′-(5-(4-hydroxycyclohexyl)-1-methyl-4,5,6,7-tetrahydro-1H-imidazo[4,5-c]pyridine-2-carboxamido)-[1,1′-biphenyl]-3-yl)carbamoyl)-1-methyl-1,4,6,7-tetrahydro-5H-imidazo[4,5-c]pyridin-5-yl)ethyl)bicyclo[2.2.1]heptane-1-carboxylic Acid] |  | ≤ 10
6 | ≤ 5 | ≤ 10 | 10 to 100 |  | Cc1c(NC(=O)c2nc3c(n2C)CCN(C2CCC(O)CC2)C3)cccc1-c1cccc(NC(=O)c2nc3c(n2C)CCN(CCC24CCC(C(=O)O)(CC2)C4)C3)c1Cl (single isomer, unassigned) [61 (compound 1), 4-(2-(2-((2-chloro-3′-(5-(4-hydroxycyclohexyl)-1-methyl-4,5,6,7-tetrahydro-1H-imidazo[4,5-c]pyridine-2-carboxamido)-2′-methyl-[1,1′-biphenyl]-3-yl)carbamoyl)-1-methyl-1,4,6,7-tetrahydro-5H-imidazo[4,5-c]pyridin-5-yl)ethyl)bicyclo[2.2.1]heptane-1-carboxylic acid] | 10 to 100 | 
7 | ≤ 5 |  | 10 to 100 |  | Cc1c(NC(=O)c2nc3c(n2C)CCN(C2CCOCC2)C3)cccc1-c1cccc(NC(=O)c2nc3c(n2C)CCN(CCC24CCC(C(=O)O)(CC2)C4)C3)c1Cl [Example 28, 4-(2-(2-((2-chloro-2′-methyl-3′-(1-methyl-5-(tetrahydro-2H-pyran-4-yl)-4,5,6,7-tetrahydro-1H-imidazo[4,5-c]pyridine-2-carboxamido)-[1,1′-biphenyl]-3-yl)carbamoyl)-1-methyl-1,4,6,7-tetrahydro-5H-imidazo[4,5-c]pyridin-5-yl)ethyl)bicyclo[2.2.1]heptane-1-carboxylic acid] | 10 to 100 | 
8 | ≤ 5 |  | 10 to 100 |  | Cc1c(NC(=O)c2nc3c(n2C)CCN(CCO)C3)cccc1-c1cccc(NC(=O)c2nc3c(n2C)CCN(CCC24CCC(C(=O)O)(CC2)C4)C3)c1Cl [Example 33, 4-(2-(2-((2-chloro-3′-(5-(2-hydroxyethyl)-1-methyl-4,5,6,7-tetrahydro-1H-imidazo[4,5-c]pyridine-2-carboxamido)-2′-methyl-[1,1′-biphenyl]-3-yl)carbamoyl)-1-methyl-1,4,6,7-tetrahydro-5H-imidazo[4,5-c]pyridin-5-yl)ethyl)bicyclo[2.2.1]heptane-1-carboxylic acid] | 10 to 100 | 
